Source: patent US20250248973A1, “CANNABINOID RECEPTOR 1 ANTAGONISTS/INVERSE AGONISTS AND USES THEREOF” (Corbus Pharmaceuticals, Inc., priority 2022, published 2025)

Assays:
[1] = target: Human CB1 Receptor-1 (hCB1) (Homo sapiens (Human), UniProt P21554); assay: hCB1 Gai cyclic AMP (cAMP) TR-FRET assay, antagonism of EC80 CP55940 with forskolin; type: cell-based; conditions: hCB1 cells, 30 min pre-incubation
In short: (§1)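 Cells expressing hCB1 or hCB1b were preincubated with compound for 30 min at rt, then stimulated with an EC80 concentration of CP55940 plus forskolin for 20 min at 37C. cAMP was measured by TR-FRET using Eu-cAMP and 650-labeled anti-cAMP in lysis buffer, with emission at 620/665 nm. IC50 values are binned by category.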

[2] = Pharmacokinetics following oral administration in male C57BL/6 mice: brain/plasma ratio; type: in vivo; conditions: single PO 10 mg/kg, compared to rimonabant 10 mg/kg PO
Procedure: FIG. 2 provides graphs showing the brain/plasma ratio of orally administered Compound 9 (10 mg/kg) in comparison to orally administered rimonabant (10 mg/kg) C57BL/6J in mice, as measured by area under the curve from 0 to 24 hours (AUC0-24) and maximum concentration (Cmax) post administration.
Example 5. Pharmacokinetics of Following Oral Administration in Male C57BL/6 Mice
A study was conducted to compare the brain/plasma ratios of Compound 9 and rimonabant following oral administration in mice.
Fasted overnight with free access to water and fed 4 hr post dosing
PO administration via oral gavage
Group 2: PO, 10 mg/kg, 10 mL/kg
0.5% MC (400 cp) in purified water (1 mg/mL)
Terminal sampling for brain @0.25, 0.5, 1, 2, 4, 8 and 24 hr, 7 time points. (N=3/timepoint, N=21/arm); collect brains after perfusion.

[3] = target: Human CB1 Receptor-1b (hCB1b) (Homo sapiens (Human), UniProt P21554); assay: hCB1b Gai cyclic AMP (cAMP) TR-FRET assay, antagonism of EC80 CP55940 with forskolin; type: cell-based; conditions: hCB1b cells, 30 min pre-incubation, read-out: CB1b IC50
In short: as §1

Sequence of Human CB1 Receptor-1 (hCB1) (P21554 whole entry): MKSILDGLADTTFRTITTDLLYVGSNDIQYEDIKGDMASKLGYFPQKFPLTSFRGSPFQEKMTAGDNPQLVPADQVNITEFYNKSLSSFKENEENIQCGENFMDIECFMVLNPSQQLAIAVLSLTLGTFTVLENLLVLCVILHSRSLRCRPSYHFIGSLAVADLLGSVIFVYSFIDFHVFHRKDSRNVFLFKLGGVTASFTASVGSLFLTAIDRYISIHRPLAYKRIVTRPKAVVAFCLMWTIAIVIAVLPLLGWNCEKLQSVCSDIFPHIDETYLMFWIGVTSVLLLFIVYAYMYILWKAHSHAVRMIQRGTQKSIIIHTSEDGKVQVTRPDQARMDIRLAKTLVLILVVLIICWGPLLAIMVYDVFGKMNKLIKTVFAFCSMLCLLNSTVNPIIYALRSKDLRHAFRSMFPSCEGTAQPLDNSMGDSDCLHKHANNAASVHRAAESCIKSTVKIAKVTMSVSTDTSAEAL
Sequence of Human CB1 Receptor-1b (hCB1b) (P21554 other isoform, or with tags, fused parts or gaps): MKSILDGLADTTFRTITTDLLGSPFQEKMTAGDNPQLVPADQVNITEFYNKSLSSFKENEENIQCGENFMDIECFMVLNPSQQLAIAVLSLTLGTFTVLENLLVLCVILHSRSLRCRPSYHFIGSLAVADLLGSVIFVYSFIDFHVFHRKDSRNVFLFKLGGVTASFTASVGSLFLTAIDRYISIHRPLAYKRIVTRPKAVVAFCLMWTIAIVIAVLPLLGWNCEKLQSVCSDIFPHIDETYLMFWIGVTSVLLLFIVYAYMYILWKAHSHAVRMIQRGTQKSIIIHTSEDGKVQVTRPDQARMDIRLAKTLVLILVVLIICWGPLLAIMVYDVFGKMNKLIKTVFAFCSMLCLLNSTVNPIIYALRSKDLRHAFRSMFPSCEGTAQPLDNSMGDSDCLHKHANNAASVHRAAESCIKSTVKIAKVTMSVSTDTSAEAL

IC50 [1]: < 100 nM
IC50 [3]: < 100 nM
SMILES: NS(=O)(=O)CCNC(=NS(=O)(=O)c1ccc(C(F)(F)F)cc1)N1C[C@H](c2ccccc2)C(c2ccc(Cl)cc2)=N1 [Compound 9, (S,E)-3-(4-chlorophenyl)-4-phenyl-N-(2-sulfamoylethyl)-N′-((4-(trifluoromethyl)phenyl)sulfonyl)-4,5-dihydro-1H-pyrazole-1-carboximidamide]
blood-brain-barrier penetration (brain/plasma ratio by AUC0-24 and Cmax) [2]: substantially reduced blood-brain-barrier penetration as compared to rimonabant
